This note sets out measurements from a melting point compilation (Tetko et al.; mined from patent text by program, amines drawn as free bases though some values may be those of a salt).

Non-standard residues stand in square brackets, D forms with d. Residues, ends and D or L forms follow the SMILES beside them. Hyp = O=C(O)[C@@H]1C[C@@H](O)CN1

Compound `Cc1nc2c(OCc3c(Cl)ccc(N(C)C)c3Cl)cccn2c1Br` registered a melting point of 120 to 122 °C. `CC(C)(C)OC(=O)NCCNC(=O)c1ncccc1Br`: the melting point lay in the range of 125 to 130 °C. Compound `COc1cc(/C=C/C(=O)O)ccc1OCc1sc(-c2ccc(C(F)(F)F)cc2)nc1C` displayed a melting point of 235 to 237 °C. With `Cc1nc2sccn2c(=O)c1CCN1CCC(=C(c2ccc(F)cc2)c2ccc(F)cc2)CC1`, the melting point was found to be 146 °C.

In the case of `CC(C)[C@H](O)CP(=O)(O)CCCN`, the melting point was in the range of 187 to 189 °C.

On to `O=C(c1ccccc1)C1CCN1C(c1ccccc1)c1ccccc1` (centres undefined), for which the melting point is 114 to 115 °C. As for `CC(=O)N1c2ccccc2Sc2c(O)c(O)c3ccccc3c21`, the melting point was 258 to 260 °C. For `O=C(NCc1ccc(F)cc1)c1ccnc(N2CCN(Cc3ccccn3)C2=O)c1`, the melting point lay within 141 to 142 °C.

Compound `CC(C)Cn1c(=O)n(C)c(=O)c2c(SCC(C)O)c(Cc3cccc4ccccc34)sc21` (centres undefined) registered a melting point of 126 to 128 °C. In turn, `CS(=O)(=O)c1ccc(-c2cnn(-c3ccc(Cl)s3)c(=O)c2-c2ccc(Cl)cc2)cc1` showed a melting point of 249 to 251 °C. For the compound `CCCCCCCCCC(=O)Nc1ccc(S(=O)(=O)Nc2nnc(C(=O)OCC)s2)cc1`, the melting point lay within 101 to 102 °C. `Oc1c(Br)cc(Br)c2c(Cl)ncnc12` came in with a melting point of 198 to 199 °C. `CC(Cl)(Cl)C(NC(=O)c1cccc(Cl)c1)NC(=NC#N)Nc1ccc(F)nc1` (centres undefined) registered a melting point of 124 to 125 °C. As for `O=C(C=Cc1ccc(O)cc1)C=Cc1ccc(O)cc1`, the melting point is 236 °C. Turning to `O=C(Nc1ccc(CN2CCCCC2)cc1)c1ccc2ccc(-c3ccccc3)cc2c1`, the melting point was in the range of 177 to 178 °C. On to `COc1ccc(C(=O)c2cc(Cl)ccc2N)c(O)c1OC`, for which the melting point was 112 to 115 °C.

With `CCCN(CCCCNC(=O)N1CCc2cc(OC)c(OC)cc2C1)C1CCc2ncsc2C1` (centres undefined), the melting point was determined as 106 °C. With `NC(=O)CNC(=O)c1ccnc(-c2cccc3cc(Cc4cccc(C(F)(F)F)c4)sc23)c1F` the figure was 169 to 170 °C; with `CC(C#N)(CC#N)c1cccc([N+](=O)[O-])c1` (centres undefined), 142 to 143 °C.

In the case of `C#CCSC1NN=C(c2ccncc2)N1c1ccccc1` (centres undefined), the melting point is 151 to 152 °C. `CC[C@@H]1CCCN1CCc1cc2cc(-c3ccc(C#N)cc3)ccc2o1`: the melting point was 147 °C. To `N=C(c1ccc(Cl)cc1)c1cc2ccccc2cn1` belongs 151 to 152 °C. For `CCCCCCCCCCCCCCCCCCOc1cc(OCc2ccc3ccccc3n2)cc(N(CC(=O)OC)CC(=O)OC)c1`, the melting point is 76 to 79 °C. `CS(=O)c1ncc2ccc(=O)n(C3CCCC3)c2n1` (centres undefined) gave a melting point of 170 to 173 °C. In turn, `COCC(C)OC(=O)c1ccc([N+](=O)[O-])cc1[N+](=O)[O-]` (centres undefined) showed a melting point of 42 °C. To `CCN1CCc2ccc(Nc3ncc(Cl)c(N[C@H]4CCCC[C@H]4C(=O)NC)n3)cc2CC1` (relative stereo) belongs 143 °C. To `CCCN(Cc1ccc(C(=O)N2CCN(c3ccccc3)CC2)cc1)C1CCc2ncsc2C1` (centres undefined) belongs 70 °C; to `CC(C)C1CC1(O)C(=O)O` (centres undefined), 135 to 138 °C; to `COCc1c(C(=O)OC(C)C)ncc2[nH]c3ccc(CCc4ccc(Cl)cc4)cc3c12`, 149 to 151 °C. In turn, `COC(=O)C1=C(C)Nc2nccn2C1C1CCCCC1` (centres undefined) displayed a melting point of 178 °C. As for `COc1ccccc1Nc1nc2c(-c3ccc(C(F)(F)F)cc3)cccn2n1`, the melting point fell in the range of 184 to 186 °C. Regarding `N#CC(c1cccc(F)c1)N1CCOCC1` (centres undefined), the melting point fell in the range of 74 to 75 °C. To `CCc1nc(/C=C/c2cn(-c3ccccc3C)nc2O)cs1` belongs 174 to 176 °C. To `OCc1cn(-c2cc(F)cc(Br)c2)cn1` belongs 134 to 138 °C; to `O=C1NCc2c1cc1ccc3c(c1c2-c1ccccc1)OCO3`, 290 to 292 °C. With `COC(=O)/C=C/c1nc(C(=O)OC)ccc1OC` the figure was 123 to 126 °C; with `Cc1ccccc1Cn1c(=O)[nH]c2cc(Cl)cc(Cl)c2c1=O`, 274 to 276 °C.

As for `CC[C@@H]1O[C@](/C=C/C2CC2)(C(F)(F)F)c2cc(F)ccc2NC1=O` (relative stereo), the melting point fell in the range of 148 to 149 °C.

Consider `O=Cc1cccc(Sc2ccc(O)cc2)c1O`, for which the melting point lay in the range of 97 to 98 °C.

Take `Fc1cc2c(cc1F)CC(n1c(-c3nnn[nH]3)c[nH]c1=S)CC2` (centres undefined): the melting point lay in the range of 195 to 212 °C. Compound `CCOC(=O)N1CCN(c2ncnc3c2cnn3Cc2ccncc2)CC1` yielded a melting point of 123 to 124 °C. `N#Cc1ccc(OCc2cccnc2)cc1OC(C(=O)O)c1ccccc1` (racemic) registered a melting point of 201 to 202 °C. To `COc1ccc(-c2nc(-c3ccc[nH]3)n(CCCBr)c2-c2ccc(OC)cc2)cc1` belongs 97 °C. Consider `Cc1cc(CCCCOCCCCCCNCc2c(CO)ccc(O)c2CO)cc(C)c1N`, for which the melting point lay in the range of 66 to 68 °C.

For the compound `OCC1=C(c2ccc3sccc3c2)N2CCN=C2S1`, the melting point is 149 to 150 °C.

The compound `CC(c1nnc2c(=O)[nH]c3cc(C(F)(F)F)c(Br)cc3n12)P(=O)(O)O` (centres undefined) registered a melting point greater than 300 °C.

The compound `COC(=O)C=C(C)c1ccc(CCC(C)(C)NCC(O)c2ccccc2)cc1` (centres undefined) registered a melting point of 98 to 102 °C.

Compound `NCC(=O)N1C[C@H](O)C[C@H]1C(=O)N[C@@H](CCC(=O)O)C(=O)O` (H-Gly-[Hyp]-Glu-OH) had a melting point of 158 to 160 °C. Compound `Cc1cc(NC(=O)c2cnn(-c3ccc(Cl)cc3)c2C)ccc1N1CCC(N2CCOCC2)CC1` returned a melting point of 235 to 245 °C. As for `CCn1c2ccc(C(=O)CC(C)=O)cc2c2cc(C(=O)c3ccccc3C)ccc21`, the melting point came out at 148 °C. Take `CCCCNC(=O)NS(=O)(=O)c1cc(C(F)(F)F)ccc1S(=O)(=O)N(C)C`: the melting point lay within 128 to 130 °C.

Consider `COc1ccc(C(Cl)=NO)cc1`, for which the melting point is 87.5 to 89.5 °C. With `BrC12CCCC(C1)C1CCC2C1` (centres undefined) the figure was 57.5 to 58.5 °C. In turn, `CCC(=O)N[C@@H]1CCc2ccc(OC)cc2[C@H]1O` showed a melting point of 162 to 163 °C. In turn, `Cn1ncc(SCc2ccccc2)c(Br)c1=O` came in with a melting point of 118 to 121 °C.

Turning to `CNC(=O)c1cnc(N2CCOCC2)cc1-c1ccccc1C`, the melting point lay within 156 to 158 °C. Regarding `CCCCCc1c(C(C)C)nc(C(C)C)c(CO)c1-c1cccc(C)c1`, the melting point lay in the range of 88 to 90 °C. Take `CCCc1cc(C(O)=S)cc(N)c1-c1ccccc1`: the melting point lay within 190 to 191 °C. Regarding `CN1CCC(c2c[nH]c3cnc(-n4cncn4)cc23)CC1`, the melting point fell in the range of 209 to 211 °C. To `COC(=O)CC[C@H](NC(=O)c1ccc(I)cc1F)C(=O)OC` belongs 94 to 96 °C. Compound `O=C(c1ccccc1)c1cc(Cl)ccc1C=CCN1C(=O)c2ccccc2C1=O` showed a melting point of 70 to 72 °C. `Cc1ccc(S(=O)(=O)Oc2ccc(CN3CCOCC3)nc2)cc1`: the melting point was 68 to 69 °C. Compound `Cc1cc2ncc(C#N)c(Cl)c2s1` had a melting point of 163 to 164 °C. To `COc1ccc(Cc2ccc(NC3=NCCN3)cc2OC)cc1` belongs 127 to 128 °C.

What is called melting point is the temperature, or range, at which the solid turns liquid.
